Tests used:
Type in all cases: in vivo, C57BL/6 mice
chicken Ovalbumin (pOVA) [1] = assay: Anti-OVA IgG titers, MTX given with pOVA+CpG s.c. (Example 18); settings: MTX i.p. days 1-3, 7-9, 14-16; 25 μg pOVA + 2 μg CpG s.c. weekly, 5 injections; FIG. 3
Procedure: (§1) In order to test whether multiple injections of MTX can lead to the establishment of immunological tolerance, C57BL/6 age-matched (5-6 weeks) female mice were injected intravenously in the tail vein with weekly injections of 200 μg of keyhole limpet hemocyanin (KLH) and subcutaneously in the hind limbs with 25 μg of a particulate form of chicken Ovalbumin (pOVA) admixed to 2 μg of CpG oligodeoxynucleotides (ODN). With the first three antigen injections, a group of animals received 3 intraperitoneal injections of MTX on the same day and the following 2 days. All animals received 5 injections of antigen (d0, 7, 14, 21 and 28) and one group received 9 additional injections of MTX i.p. (days 1-3, 7-9, 14-16).
(§2) The anti-KLH and anti-OVA responses were monitored in the blood in these animals at different time points.

[2] = tested on: keyhole limpet hemocyanine (KLH); assay: Anti-KLH antibody response, KLH+CpG given after MTX treatment (Example 17); settings: 20 μg KLH + 2 μg CpG s.c. injected after the MTX treatments (from d21); FIG. 2
Procedure: (§3) C57BL/6 age-matched (5-6 weeks) female mice were injected 5 times intravenously in the tail vein with weekly injections of 25 μg of an immunogenic, particulate form of chicken Ovalbumin (pOVA). One group of animals received 3 intraperitoneal injections of 200 μg of MTX along with the 3 first antigen injections the same day and the 2 following days. The untreated group received only antigen whereas the treated group received 9 injections total of MTX i.p. (days 1-3, 7-9, 14-16). On the 4th and 5th injection days all animals received 20 μg of keyhole limpet hemocyanine (KLH) subcutaneously in the hind limbs admixed to 2 μg of CpG in addition to the i.v. injection of pOVA.
(§4) The anti-KLH and anti-OVA antibody responses were monitored in the blood in these animals at different time points.

chicken Ovalbumin (pOVA) [3] = assay: Anti-OVA antibody response, MTX given with pOVA (Example 17); settings: 200 μg MTX i.p. days 1-3, 7-9, 14-16; 5 weekly i.v. injections of 25 μg pOVA; FIG. 2
Procedure: as §3, §4

[4] = tested on: keyhole limpet hemocyanin (KLH); assay: Anti-KLH IgG titers, MTX given with KLH i.v. (Example 18); settings: MTX i.p. days 1-3, 7-9, 14-16; 200 μg KLH i.v. weekly, 5 injections; FIG. 3
Procedure: as §1, §2

What does the source list for CN(Cc1cnc2nc(N)nc(N)c2n1)c1ccc(C(=O)N[C@@H](CCC(=O)O)C(=O)O)cc1 [MTX, Methotrexate]?
anti-OVA IgG antibody titers (chicken Ovalbumin (pOVA) [1]): blocked both responses and the animals showed low titers; anti-KLH response [2]: robust anti-KLH response could be detected in all groups; anti-OVA antibody response (chicken Ovalbumin (pOVA) [3]): blocked the antibody response and only minimal titers were detected; anti-KLH IgG antibody titers [4]: blocked both responses and the animals showed low titers

From patent US20140356361A1, “REPEATED ADMINISTRATION OF NON-IMMUNOSUPPRESSIVE ANTIGEN SPECIFIC IMMUNOTHERAPEUTICS” (Selecta Biosciences, Inc., priority 2013, published 2014)
